Assay results from the supplement of paper PMC10307832.

Legend:
Experiment in all cases: relative viability (nuclei count vs DMSO), 5 days (fraction); higher = more cells survive
Linifanib + OSI-027 = compound: Cc1ccc(F)c(NC(=O)Nc2ccc(-c3cccc4[nH]nc(N)c34)cc2)c1 [Linifanib] + COc1cccc2cc(-c3nc([C@H]4CC[C@H](C(=O)O)CC4)n4ncnc(N)c34)[nH]c12 [OSI-027] (partner 0.5 µM)
Procedure, shortened: (§1)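 Dosing by pin tool came one day after lung cancer cell lines were seeded in 1536-well plates, using either one drug or a fixed anchor-drug dose plus five library-drug doses (not always all listed) in √10 steps. After 5 days, nuclei were counted on 4× images. Relative viability is treated-well nuclei count divided by vehicle-well nuclei count, and values are medians of duplicate plates.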

Linifanib + Olaparib = compound: Cc1ccc(F)c(NC(=O)Nc2ccc(-c3cccc4[nH]nc(N)c34)cc2)c1 [Linifanib] + O=C(c1cc(Cc2n[nH]c(=O)c3ccccc23)ccc1F)N1CCN(C(=O)C2CC2)CC1 [Olaparib] (partner 8 µM)
Procedure, shortened: as §1

Linifanib + Luminespib = compound: Cc1ccc(F)c(NC(=O)Nc2ccc(-c3cccc4[nH]nc(N)c34)cc2)c1 [Linifanib] + CCNC(=O)c1noc(-c2cc(C(C)C)c(O)cc2O)c1-c1ccc(CN2CCOCC2)cc1 [Luminespib] (partner 0.01 µM)
Procedure, shortened: as §1

Linifanib + AZD7762 = compound: Cc1ccc(F)c(NC(=O)Nc2ccc(-c3cccc4[nH]nc(N)c34)cc2)c1 [Linifanib] + NC(=O)Nc1cc(-c2cccc(F)c2)sc1C(=O)N[C@H]1CCCNC1 [AZD7762] (partner 0.2 µM)
Procedure, shortened: as §1

Linifanib + Crizotinib = compound: Cc1ccc(F)c(NC(=O)Nc2ccc(-c3cccc4[nH]nc(N)c34)cc2)c1 [Linifanib] + C[C@@H](Oc1cc(-c2cnn(C3CCNCC3)c2)cnc1N)c1c(Cl)ccc(F)c1Cl [Crizotinib] (partner 1 µM)
Procedure, shortened: as §1

Linifanib = compound: Cc1ccc(F)c(NC(=O)Nc2ccc(-c3cccc4[nH]nc(N)c34)cc2)c1 [Linifanib]
Procedure, shortened: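 In 1536-well plates, lung cancer cell lines rested overnight at 37 °C before five library-drug doses (not always all listed), √10 apart, were pinned onto vehicle-anchored plates. Nuclei were counted with MetaXpress from 4× Hoechst images taken after 5 days without medium change. Viability compares treated-well with vehicle-well nuclei as a median over plates, and plates needed control CV below 25% plus at least one doubling to pass.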

## ABC-1
Linifanib + OSI-027; first compound 0.03162 µM
  relative viability: 0.506
Linifanib + OSI-027; first compound 0.1 µM
  relative viability: 0.433
Linifanib + OSI-027; first compound 0.3162 µM
  relative viability: 0.381
Linifanib + Olaparib; first compound 0.03162 µM
  relative viability: 0.765
Linifanib + Olaparib; first compound 0.1 µM
  relative viability: 0.725
Linifanib + Olaparib; first compound 0.3162 µM
  relative viability: 0.681
Linifanib + Luminespib; first compound 0.03162 µM
  relative viability: 0.497
Linifanib + Luminespib; first compound 0.1 µM
  relative viability: 0.558
Linifanib + Luminespib; first compound 0.3162 µM
  relative viability: 0.783
Linifanib + AZD7762; first compound 0.03162 µM
  relative viability: 0.869
Linifanib + AZD7762; first compound 0.3162 µM
  relative viability: 0.767
Linifanib + Crizotinib; first compound 0.03162 µM
  relative viability: 1.28
Linifanib + Crizotinib; first compound 0.1 µM
  relative viability: 1.27
Linifanib + Crizotinib; first compound 0.3162 µM
  relative viability: 0.996
Linifanib; 0.03162 µM
  relative viability: 1.03
Linifanib; 0.1 µM
  relative viability: 0.842
Linifanib; 0.3162 µM
  relative viability: 0.672

## PC-14
Linifanib + OSI-027; first compound 0.03162 µM
  relative viability: 0.844
Linifanib + OSI-027; first compound 0.1 µM
  relative viability: 1.08
Linifanib + OSI-027; first compound 0.3162 µM
  relative viability: 0.762
Linifanib + Olaparib; first compound 0.03162 µM
  relative viability: 0.353
Linifanib + Olaparib; first compound 0.1 µM
  relative viability: 0.231
Linifanib + Olaparib; first compound 0.3162 µM
  relative viability: 0.256
Linifanib + Luminespib; first compound 0.03162 µM
  relative viability: 0.201
Linifanib + Luminespib; first compound 0.1 µM
  relative viability: 0.197
Linifanib + Luminespib; first compound 0.3162 µM
  relative viability: 0.147
Linifanib + AZD7762; first compound 0.03162 µM
  relative viability: 0.377
Linifanib + AZD7762; first compound 0.1 µM
  relative viability: 0.491
Linifanib + AZD7762; first compound 0.3162 µM
  relative viability: 0.262
Linifanib + Crizotinib; first compound 0.03162 µM
  relative viability: 0.919
Linifanib + Crizotinib; first compound 0.1 µM
  relative viability: 1
Linifanib + Crizotinib; first compound 0.3162 µM
  relative viability: 0.793
Linifanib; 0.03162 µM
  relative viability: 0.999
Linifanib; 0.1 µM
  relative viability: 1
Linifanib; 0.3162 µM
  relative viability: 0.904

## NCI-H358
Linifanib + OSI-027; first compound 0.03162 µM
  relative viability: 0.836
Linifanib + OSI-027; first compound 0.1 µM
  relative viability: 1.06
Linifanib + OSI-027; first compound 0.3162 µM
  relative viability: 0.748
Linifanib + Olaparib; first compound 0.03162 µM
  relative viability: 0.521
Linifanib + Olaparib; first compound 0.1 µM
  relative viability: 0.771
Linifanib + Olaparib; first compound 0.3162 µM
  relative viability: 0.55
Linifanib + Luminespib; first compound 0.03162 µM
  relative viability: 0.366
Linifanib + Luminespib; first compound 0.1 µM
  relative viability: 0.374
Linifanib + Luminespib; first compound 0.3162 µM
  relative viability: 0.416
Linifanib + AZD7762; first compound 0.03162 µM
  relative viability: 0.667
Linifanib + AZD7762; first compound 0.1 µM
  relative viability: 0.495
Linifanib + AZD7762; first compound 0.3162 µM
  relative viability: 0.574
Linifanib + Crizotinib; first compound 0.03162 µM
  relative viability: 0.502
Linifanib + Crizotinib; first compound 0.1 µM
  relative viability: 0.762
Linifanib + Crizotinib; first compound 0.3162 µM
  relative viability: 0.51
Linifanib; 0.03162 µM
  relative viability: 0.896
Linifanib; 0.1 µM
  relative viability: 1.16
Linifanib; 0.3162 µM
  relative viability: 0.924

## EPLC-272H
Linifanib + OSI-027; first compound 0.03162 µM
  relative viability: 0.26
Linifanib + OSI-027; first compound 0.1 µM
  relative viability: 0.327
Linifanib + OSI-027; first compound 0.3162 µM
  relative viability: 0.29
Linifanib + Olaparib; first compound 0.03162 µM
  relative viability: 0.728
Linifanib + Olaparib; first compound 0.1 µM
  relative viability: 1.05
Linifanib + Olaparib; first compound 0.3162 µM
  relative viability: 0.722
Linifanib + Luminespib; first compound 0.03162 µM
  relative viability: 0.405
Linifanib + Luminespib; first compound 0.1 µM
  relative viability: 0.392
Linifanib + Luminespib; first compound 0.3162 µM
  relative viability: 0.419
Linifanib + AZD7762; first compound 0.03162 µM
  relative viability: 0.226
Linifanib + AZD7762; first compound 0.1 µM
  relative viability: 0.448
Linifanib + AZD7762; first compound 0.3162 µM
  relative viability: 0.205
Linifanib + Crizotinib; first compound 0.03162 µM
  relative viability: 0.813
Linifanib + Crizotinib; first compound 0.1 µM
  relative viability: 0.913
Linifanib + Crizotinib; first compound 0.3162 µM
  relative viability: 0.826
Linifanib; 0.03162 µM
  relative viability: 0.883
Linifanib; 0.1 µM
  relative viability: 1.23
Linifanib; 0.3162 µM
  relative viability: 0.884

## HCC-15
Linifanib + OSI-027; first compound 0.03162 µM
  relative viability: 0.735
Linifanib + OSI-027; first compound 0.1 µM
  relative viability: 0.795
Linifanib + OSI-027; first compound 0.3162 µM
  relative viability: 0.7
Linifanib + Olaparib; first compound 0.03162 µM
  relative viability: 0.827
Linifanib + Olaparib; first compound 0.1 µM
  relative viability: 0.772
Linifanib + Olaparib; first compound 0.3162 µM
  relative viability: 0.706
Linifanib + Luminespib; first compound 0.03162 µM
  relative viability: 0.387
Linifanib + Luminespib; first compound 0.1 µM
  relative viability: 0.278
Linifanib + Luminespib; first compound 0.3162 µM
  relative viability: 0.3
Linifanib + AZD7762; first compound 0.03162 µM
  relative viability: 0.922
Linifanib + AZD7762; first compound 0.1 µM
  relative viability: 1.18
Linifanib + AZD7762; first compound 0.3162 µM
  relative viability: 1.12
Linifanib + Crizotinib; first compound 0.03162 µM
  relative viability: 0.855
Linifanib + Crizotinib; first compound 0.1 µM
  relative viability: 0.86
Linifanib + Crizotinib; first compound 0.3162 µM
  relative viability: 0.779
Linifanib; 0.03162 µM
  relative viability: 1.08
Linifanib; 0.1 µM
  relative viability: 1.05
Linifanib; 0.3162 µM
  relative viability: 0.939

## NCI-H1993
Linifanib + OSI-027; first compound 0.03162 µM
  relative viability: 0.495
Linifanib + OSI-027; first compound 0.1 µM
  relative viability: 0.552
Linifanib + OSI-027; first compound 0.3162 µM
  relative viability: 0.61
Linifanib + Olaparib; first compound 0.03162 µM
  relative viability: 1.03
Linifanib + Olaparib; first compound 0.1 µM
  relative viability: 1.13
Linifanib + Olaparib; first compound 0.3162 µM
  relative viability: 0.963
Linifanib + Luminespib; first compound 0.03162 µM
  relative viability: 0.864
Linifanib + Luminespib; first compound 0.1 µM
  relative viability: 0.933
Linifanib + Luminespib; first compound 0.3162 µM
  relative viability: 1.03
Linifanib + AZD7762; first compound 0.03162 µM
  relative viability: 0.974
Linifanib + AZD7762; first compound 0.1 µM
  relative viability: 0.894
Linifanib + AZD7762; first compound 0.3162 µM
  relative viability: 0.831
Linifanib + Crizotinib; first compound 0.03162 µM
  relative viability: 1.01
Linifanib + Crizotinib; first compound 0.1 µM
  relative viability: 0.932
Linifanib + Crizotinib; first compound 0.3162 µM
  relative viability: 0.867
Linifanib; 0.03162 µM
  relative viability: 0.89
Linifanib; 0.1 µM
  relative viability: 1.2
Linifanib; 0.3162 µM
  relative viability: 0.946

## NCI-H2170
Linifanib + OSI-027; first compound 0.03162 µM
  relative viability: 0.655
Linifanib + OSI-027; first compound 0.1 µM
  relative viability: 0.747
Linifanib + OSI-027; first compound 0.3162 µM
  relative viability: 0.732
Linifanib + Olaparib; first compound 0.03162 µM
  relative viability: 0.612
Linifanib + Olaparib; first compound 0.1 µM
  relative viability: 0.701
Linifanib + Olaparib; first compound 0.3162 µM
  relative viability: 0.566
Linifanib + Luminespib; first compound 0.03162 µM
  relative viability: 0.686
Linifanib + Luminespib; first compound 0.1 µM
  relative viability: 0.844
Linifanib + Luminespib; first compound 0.3162 µM
  relative viability: 0.741
Linifanib + AZD7762; first compound 0.03162 µM
  relative viability: 0.831
Linifanib + AZD7762; first compound 0.1 µM
  relative viability: 0.954
Linifanib + AZD7762; first compound 0.3162 µM
  relative viability: 0.843
Linifanib + Crizotinib; first compound 0.03162 µM
  relative viability: 1.33
Linifanib + Crizotinib; first compound 0.1 µM
  relative viability: 1.35
Linifanib + Crizotinib; first compound 0.3162 µM
  relative viability: 1.11
Linifanib; 0.03162 µM
  relative viability: 0.989
Linifanib; 0.1 µM
  relative viability: 1.01
Linifanib; 0.3162 µM
  relative viability: 0.928

## NCI-H23
Linifanib + OSI-027; first compound 0.03162 µM
  relative viability: 0.577
Linifanib + OSI-027; first compound 0.1 µM
  relative viability: 0.75
Linifanib + OSI-027; first compound 0.3162 µM
  relative viability: 0.572
Linifanib + Olaparib; first compound 0.03162 µM
  relative viability: 0.358
Linifanib + Olaparib; first compound 0.1 µM
  relative viability: 0.347
Linifanib + Olaparib; first compound 0.3162 µM
  relative viability: 0.186
Linifanib + Luminespib; first compound 0.03162 µM
  relative viability: 0.238
Linifanib + Luminespib; first compound 0.1 µM
  relative viability: 0.217
Linifanib + Luminespib; first compound 0.3162 µM
  relative viability: 0.225
Linifanib + AZD7762; first compound 0.03162 µM
  relative viability: 0.259
Linifanib + AZD7762; first compound 0.1 µM
  relative viability: 0.287
Linifanib + AZD7762; first compound 0.3162 µM
  relative viability: 0.31
Linifanib + Crizotinib; first compound 0.03162 µM
  relative viability: 0.555
Linifanib + Crizotinib; first compound 0.1 µM
  relative viability: 0.463
Linifanib + Crizotinib; first compound 0.3162 µM
  relative viability: 0.506
Linifanib; 0.03162 µM
  relative viability: 0.98
Linifanib; 0.1 µM
  relative viability: 1.06
Linifanib; 0.3162 µM
  relative viability: 0.811

## NCI-H1437
Linifanib + OSI-027; first compound 0.03162 µM
  relative viability: 0.881
Linifanib + OSI-027; first compound 0.1 µM
  relative viability: 0.895
Linifanib + OSI-027; first compound 0.3162 µM
  relative viability: 0.908
Linifanib + Olaparib; first compound 0.03162 µM
  relative viability: 0.631
Linifanib + Olaparib; first compound 0.1 µM
  relative viability: 0.653
Linifanib + Olaparib; first compound 0.3162 µM
  relative viability: 0.603
Linifanib + Luminespib; first compound 0.03162 µM
  relative viability: 1.12
Linifanib + Luminespib; first compound 0.1 µM
  relative viability: 1.17
Linifanib + Luminespib; first compound 0.3162 µM
  relative viability: 1.04
Linifanib + AZD7762; first compound 0.03162 µM
  relative viability: 1.01
Linifanib + AZD7762; first compound 0.1 µM
  relative viability: 1.22
Linifanib + AZD7762; first compound 0.3162 µM
  relative viability: 1.13
Linifanib + Crizotinib; first compound 0.03162 µM
  relative viability: 1.05
Linifanib + Crizotinib; first compound 0.1 µM
  relative viability: 0.849
Linifanib + Crizotinib; first compound 0.3162 µM
  relative viability: 0.888
Linifanib; 0.03162 µM
  relative viability: 1.07
Linifanib; 0.1 µM
  relative viability: 1.01
Linifanib; 0.3162 µM
  relative viability: 0.978
